In patent publication US20220340547A1, “INDOLE DERIVATIVE-CONTAINING INHIBITOR, PREPARATION METHOD THEREFOR AND APPLICATION THEREOF” (Shanghi Hansoh Biosoh Biomedical Co., Ltd., priority 2019, published 2022):

Columns and labels:
[1] = tested on: Ba/F3 EGFR-D770-N771ins_SVD xenograft; test: In vivo pharmacodynamic study in mouse pro-B cell Ba/F3 EGFR-D770-N771ins_SVD xenograft model; details: 40 mg/kg, oral, 1 time/day, 14 days; for Tumor volume (mm3, Mean ± SD) Day 14: BALB/cA nude mice
Method: In Vivo Pharmacodynamic Study of the Compound of the Present Invention in the Mouse Pro-B Cell Ba/F3 EGFR-D770-N771ins_SVD Xenograft Model
The in vivo efficacy of the compound in the mouse pro-B cell Ba/F3 EGFR-D770-N771ins_SVD xenograft model was evaluated.
BALB/cA nude mice (6-8 weeks old, female) were purchased from Shanghai Sino-British SIPPR/BK Lab Animal Co., Ltd.
a. […] The resuscitated cells were placed in the cell culture flasks (cell type, date, the name of the culturing person and the like were marked on the flask wall), and incubated in a CO2 incubator (the incubator temperature was 37° C., and the CO2 concentration was 5%).
b. The cells were passaged every three days. After passage, the cells were further incubated in the CO2 incubator. The process was repeated until the number of cells met the requirements of the in vivo pharmacodynamic study.
c. The cultured cells were collected and counted by the automatic cell counter. According to the counting results, the cells were resuspended in PBS to prepare a cell suspension (density: 2×10^7 cells/mL), which was placed in an ice box for later use.
d. The test nude mice were inoculated in turn (0.1 mL of cell suspension per mouse).
a. Tumor was measured on Day 8 to Day 14 after inoculation depending on the tumor growth, and tumor size was calculated.
Tumor volume calculation: tumor volume (mm^3)=length (mm)×width (mm)×width (mm)/2
b. According to the body weight and tumor size of the tumor-bearing mouse, the mice were randomly grouped (5 mice per group).
d. The tumor was measured and the mouse was weighed twice a week after the test drug was administrated.
Calculation of the Tumor Growth Inhibition Rate TGI (%) of the Compound: […]

A431 cell line = test: Proliferation of A431 cell line (CellTiter-Glo); type: cell-based; details: Homo sapiens, A-431, 72 h
[2] = target: Ba/F3 EGFR-D770-N771ins_SVD (Homo sapiens, UniProt P00533, DUP768-770, cells depend on it); test: Proliferation of Ba/F3 EGFR mutant cell line (CellTiter-Glo); type: cell-based, mouse; details: 72 h to 144 h, read-out: Ba/F3 EGFR-D770-N771ins_SVD IC50
EGFR D770_N771insNPG = EGFR D770_N771insNPG (Homo sapiens, UniProt P00533, INS770NPG); test: TR-FRET inhibition of kinase activity of EGFR exon 20 insertion mutation; type: biochemical
[3] = Plasma stability test, human plasma; type: in vitro ADME; details: 37° C.
Method: (§1) Test Example 5. Plasma Stability Test
(§2) The objective of this experiment is to determine the stability of the compounds of the examples in the plasma of mouse, rat and human.
(§3) 1. Plasma preparation: Animal or human whole blood was collected, placed into a test tube containing anticoagulant, and centrifuged at 3500 rpm for 10 min. The light yellow plasma in the upper layer was collected.
(§4) 2. 1 mM test compound (m/M/V=C), the compound was weighed and formulated into stock solution with DMSO.
(§5) 1. 398 μL of plasma and 2 μL of 1 mM compound (test compound) were added successively to a 96-well plate, and incubated at 37° C.
(§6) 2. 50 μL of solution was taken out at 0, 15, 30, 60, 120 min, to which 400 μL of methanol stop solution containing internal standard was added.
(§7) 3. The solution was centrifuged (3220 g, 30 min). 50 μL of supernatant was taken out, to which 50 μL of DDH2O was added to dilute. The resulting solution was injected into a LC-MS/MS.

[4] = Plasma stability test, mouse plasma; type: in vitro ADME; details: 37° C.
Method: as §1, §2, §3, §4, §5, §6, §7

[5] = Plasma stability test, rat plasma; type: in vitro ADME; details: 37° C.
Method: as §1, §2, §3, §4, §5, §6, §7

EGFR D770_N771insNPG, sequence (P00533 with tags, fused parts or gaps INS770NPG limits assumed): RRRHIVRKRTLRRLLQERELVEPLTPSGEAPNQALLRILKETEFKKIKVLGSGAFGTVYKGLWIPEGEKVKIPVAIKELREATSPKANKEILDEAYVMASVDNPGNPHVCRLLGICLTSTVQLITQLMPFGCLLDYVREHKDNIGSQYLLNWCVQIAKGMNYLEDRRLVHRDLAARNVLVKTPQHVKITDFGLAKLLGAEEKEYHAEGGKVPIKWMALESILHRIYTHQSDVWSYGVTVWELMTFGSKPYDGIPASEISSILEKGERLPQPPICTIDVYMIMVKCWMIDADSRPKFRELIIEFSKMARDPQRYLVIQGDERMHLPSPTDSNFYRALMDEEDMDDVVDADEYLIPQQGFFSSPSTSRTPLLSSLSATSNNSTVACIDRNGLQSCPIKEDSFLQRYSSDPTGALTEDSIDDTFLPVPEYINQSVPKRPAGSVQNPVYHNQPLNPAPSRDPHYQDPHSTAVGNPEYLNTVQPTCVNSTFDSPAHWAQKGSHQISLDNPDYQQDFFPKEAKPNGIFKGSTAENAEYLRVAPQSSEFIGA
Ba/F3 EGFR-D770-N771ins_SVD, sequence (P00533 with tags, fused parts or gaps DUP768-770): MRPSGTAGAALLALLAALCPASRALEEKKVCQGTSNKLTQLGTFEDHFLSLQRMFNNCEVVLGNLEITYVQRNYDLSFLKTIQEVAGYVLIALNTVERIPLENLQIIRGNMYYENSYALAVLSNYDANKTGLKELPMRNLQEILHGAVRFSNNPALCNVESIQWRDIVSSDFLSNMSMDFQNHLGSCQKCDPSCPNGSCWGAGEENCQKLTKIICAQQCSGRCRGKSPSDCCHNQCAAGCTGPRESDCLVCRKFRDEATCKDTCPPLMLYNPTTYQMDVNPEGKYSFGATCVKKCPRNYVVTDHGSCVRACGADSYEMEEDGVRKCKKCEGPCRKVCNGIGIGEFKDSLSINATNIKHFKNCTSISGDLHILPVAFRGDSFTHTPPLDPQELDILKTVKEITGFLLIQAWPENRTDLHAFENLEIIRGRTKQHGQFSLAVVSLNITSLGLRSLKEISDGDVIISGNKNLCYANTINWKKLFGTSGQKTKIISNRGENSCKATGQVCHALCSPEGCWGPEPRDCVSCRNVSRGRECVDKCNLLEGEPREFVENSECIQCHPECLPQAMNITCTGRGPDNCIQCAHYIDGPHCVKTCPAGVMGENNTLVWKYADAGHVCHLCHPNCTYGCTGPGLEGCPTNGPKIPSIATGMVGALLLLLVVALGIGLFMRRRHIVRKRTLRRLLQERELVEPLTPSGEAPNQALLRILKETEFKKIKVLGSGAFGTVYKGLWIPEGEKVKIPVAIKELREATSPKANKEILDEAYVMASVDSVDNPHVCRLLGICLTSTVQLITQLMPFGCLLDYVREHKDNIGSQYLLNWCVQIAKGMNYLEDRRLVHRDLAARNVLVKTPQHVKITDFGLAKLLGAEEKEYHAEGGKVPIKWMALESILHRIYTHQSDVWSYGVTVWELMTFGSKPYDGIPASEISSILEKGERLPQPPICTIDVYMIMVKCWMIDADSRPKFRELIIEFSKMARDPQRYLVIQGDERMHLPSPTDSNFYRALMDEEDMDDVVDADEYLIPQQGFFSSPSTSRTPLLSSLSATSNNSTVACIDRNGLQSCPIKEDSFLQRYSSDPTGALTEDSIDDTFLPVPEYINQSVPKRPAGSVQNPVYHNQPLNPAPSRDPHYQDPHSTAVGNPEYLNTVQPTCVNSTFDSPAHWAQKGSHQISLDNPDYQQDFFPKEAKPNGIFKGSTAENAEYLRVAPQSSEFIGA

Row | IC50 (A431 cell line) [nM] | GI50 [2] [nM] | IC50 (EGFR D770_N771insNPG) [nM] | Compound | T/C (%) Day 14 [1] [%] | TGI (%) Day 14 [1] [%] | Tumor volume (mm3, Mean ± SD) Day 14 [1] [mm3] | further results
1 | – | – | – | C=CC(=O)Nc1cc(Nc2nccc(-c3cn(C)c4ccccc34)n2)c(OC)cc1N(C)CCN(C)C [ADZ9291] | 48.40 | 51.60 | 935 ± 176 | –
2 | 66 | 16.6 | 0.56 | C=CC(=O)Nc1cc(Nc2ncc(-c3ncco3)c(-c3cn(C4CC4)c4ccccc34)n2)c(OC)cc1N(C)CCN(C)C [Example 37, N-(5-((4-(1-Cyclopropyl-1H-indol-3-yl)-5-(oxazol-2-yl)pyrimidin-2-yl)amino)-2-((2-(dimethylamino)ethyl)(methyl)amino)-4-methoxyphenyl)acrylamide] | 25.75 | 74.25 | 499 ± 151 | –
3 | 94.5 | 10.4 | 0.14 | C=CC(=O)Nc1cc(Nc2ncc(C#N)c(-c3cn(C4CC4)c4ccccc34)n2)c(OC)cc1N(C)CCN(C)C [Example 67, N-(5-((5-Cyano-4-(1-cyclopropyl-1H-indol-3-yl)pyrimidin-2-yl)amino)-2-((2-(dimethylamino)ethyl)(methyl)amino)-4-methoxyphenyl)acrylamide] | 10.94 | 89.06 | 212 ± 44 | half-life at 5 µM [3]: 1.38 h; Residual rate (%) 0 min ([3]; 0 min): 100.00%; Residual rate (%) 15 min ([3]; 15 min): 93.86%; Residual rate (%) 30 min ([3]; 30 min): 85.71%; Residual rate (%) 60 min ([3]; 60 min): 67.74%; Residual rate (%) 120 min ([3]; 120 min): 37.38%; half-life at 5 µM [4]: 0.665 h; Residual rate (%) 0 min ([4]; 0 min): 100.00%; Residual rate (%) 15 min ([4]; 15 min): 88.69%; Residual rate (%) 30 min ([4]; 30 min): 69.92%; Residual rate (%) 60 min ([4]; 60 min): 36.29%; Residual rate (%) 120 min ([4]; 120 min): 9.06%; half-life at 5 µM [5]: 1.23 h; Residual rate (%) 0 min ([5]; 0 min): 100.00%; Residual rate (%) 15 min ([5]; 15 min): 90.61%; Residual rate (%) 30 min ([5]; 30 min): 81.14%; Residual rate (%) 60 min ([5]; 60 min): 59.66%; Residual rate (%) 120 min ([5]; 120 min): 33.25%
4 | 66.8 | 22.9 | 0.47 | C=CC(=O)Nc1cc(Nc2ncc(-c3ncco3)c(-c3cn(C)c4ccccc34)n2)c(OC)cc1N(C)CCN(C)C [Example 81, N-(2-((2-(Dimethylamino)ethyl)(methyl)amino)-4-methoxy-5-((4-(1-methyl-1H-indol-3-yl)-5-(oxazol-2-yl)pyrimidin-2-yl)amino)phenyl)acrylamide] | 17.23 | 82.77 | 334 ± 121 | –
